Measurements: patent US20140011822A1, “METHODS AND MATERIALS FOR REDUCING VENOUS STENOSIS FORMATION OF AN ARTERIOVENOUS FISTULA OR GRAFT” (priority 2011, published 2014)

Legend:
[1] = tested on: outflow vein of arteriovenous fistula; assay: Histomorphometry of outflow vein (neointima, media/adventitia, lumen area, cell density), simvastatin; format: in vivo, mice; conditions: for Average reduction of media/adventitia area / average increase of lumen vessel area / average reduction of media/adventitia cell density / average reduction of neointima area / average reduction of neointima cell density: vs control
Experimental: (§1) Animals were housed at 22° C. temperature, 41% relative humidity, and 12-/12-hour light/dark cycles. Animals were allowed access to water and food ad libitum. […] Sixty-eight male C57BL/6 mice (Jackson Laboratories, Bar Harbor, Me.) weighing 25-30 grams were used for the present study (FIG. 18). Chronic kidney disease was created by surgical removal of the right kidney accompanied by ligation of the arterial blood supply to the upper pole of the left kidney as described elsewhere (Misra et al., J. Vasc. Interv. Radiol., 21:1255-1261 (2010); see, also, FIG. 18A). Three weeks after nephrectomy, the animals were started on simvastatin (40 mg/kg administered i.p. three times per week) or PBS (equal amount of volume used for simvastatin i.p. controls). Simvastatin was prepared as described elsewhere (Wilson et al., Arterioscler Thromb. Vasc. Biol., 21:122-128 (2001)). A week later, an AVF was created by connecting the right carotid artery to the ipsilateral jugular vein (FIG. 18B; see, also, Misra et al., J. Vasc. Interv. Radiol., 21:1255-1261 (2010) and Yang et al., J. Vasc. Interv. Radiol., 20:946-950 (2009)). Animals were sacrificed at day 7, day 14, and day 28 following AVF placement for real time polymerase chain reaction (RT-PCR) and histomorphometric analyses (FIG. 18C). Serum BUN and creatinine were measured by removing blood from the tail vein at baseline (before nephrectomy), at AVF creation, and at the time of sacrifice. […] These animals were started on simvastatin (40 mg/kg i.p.) or PBS (equal amount of volume i.p.) every other day one week before AVF placement and then sacrificed four weeks after fistula placement for histomorphometric analysis.
At euthanasia, all mice were anesthetized, and the arterio-venous fistula was carefully dissected from of the surrounding tissue. Animals were euthanized by use of CO2 asphyxiation, and the outflow veins harvested for RT-PCR or histomorphometric analyses as described elsewhere (Misra et al., Kidney Int., 68:2890-2900 (2005); Misra et al., J. Vasc. Interv. Radiol., 21:1255-1261 (2010); and Misra et al., Am. J. Physiol. Heart Circ. Physiol., 294:H2219-2230 (2008)).
(§2) Morphometric analysis was performed as described elsewhere (Misra et al., Kidney Int., 68:2890-2900 (2005); and Misra et al., Am. J. Physiol. Heart Circ. Physiol., 294:H2219-2230 (2008)). Briefly, the outflow vein was sectioned into multiple contiguous 4-μm paraffin embedded sections. Typically, 2 to 3 sections per animal for each group (simvastatin and controls) and time point (day 14 and day 28) were photographed and then quantified using KS 400 (Carl Zeiss, Inc., Thornwood, N.Y.) semiquantitative program.

Ki-67 = Ki-67 staining of outflow vein, simvastatin; format: in vivo, mice; conditions: vs control
Experimental: Multiple serial four-micrometer sections were stained and analyzed. Cellular proliferation was determined by staining for Ki-67 on sections removed from the outflow vein for simvastatin treated vessels or control groups. Smooth muscle density (α-SMA) or proliferation index (Ki-67) was determined by staining on sections removed from the outflow vein by performing quantification at the different time points. Immunohistochemistry for Ki-67 and α-SMA was performed on paraffin-embedded sections from the outflow vein after transfection with either simvastatin or controls using the Vectastain Elite ABC system (Vector Laboratories, Burlingame, Calif., USA). The following antibodies were used: mouse monoclonal antibody Ki-67 (DAKO, Carpentaria, Calif.; 1:400) or rabbit polyclonal antibody to mouse for α-SMA (Abcam, Cambridge, Mass.; 1:400).
as §2

NIH 3T3 cells = assay: Cell migration (matrigel invasion) assay in NIH 3T3 cells, simvastatin; format: cell-based
Experimental: One hundred thousand NIH 3T3 cells were treated with simvastatin (1 μM, 5 μM, or 10 μM) or controls and made hypoxic for 24 hours as described elsewhere (Misra et al., J. Vasc. Interv. Radiol., 21:896-902 (2010)).
NIH 3T3 cells were synchronized for 24 hours in serum free media. Next, one hundred thousand NIH 3T3 cells were treated with simvastatin or controls and seeded in 8-micron trans-wells that were pre-coated with low growth factor matrigel in a serum free media. The complete media was supplemented under the trans-well and incubated for 6 hours at 37° C. After 6 hours, trans-wells were washed with PBS and fixed with paraformaldehye (4% v/v). Finally, trans-wells were stained with bromophenol (0.1%) solution. The cells from upper side were removed with cotton tip applicators. The cells at bottom side were counted for analysis.

VEGF-A = assay: RT-PCR for VEGF-A at outflow vein, simvastatin; format: in vivo, mice
Experimental: as §1
(§3) The tissue was stored in RNA stabilizing reagent (Qiagen, Gaithersburg, Md.) as per the manufacturer's guidelines. To isolate the RNA, the specimens were homogenized, and total RNA was isolated using RNeasy mini kit (Qiagen) (Misra et al., J. Vasc. Interv. Radiol., 21:1255-1261 (2010); and Yang et al., J. Vasc. Interv. Radiol., 20:946-950 (2009)).
(§4) Expression for the gene of interest was determined using RT-PCR analysis as described elsewhere (Misra et al., J. Vasc. Interv. Radiol., 21:1255-1261 (2010)). Commercial PCR primers for the gene of interest were purchased from SA Biosciences (Frederick, Md.).

[2] = tested on: apoptosis at the outflow vein; assay: TUNEL staining of outflow vein, simvastatin; format: in vivo, mice; conditions: for average increase of TUNEL staining: vs control
Experimental: TUNEL staining was performed on paraffin-embedded sections from the outflow vein after treatment with either simvastatin or controls as specified by the manufacturer (DeadEnd Colorimetric tunnel assay system, G7360, Promega, Madison, Wis.).
as §2

HIF-1α = assay: RT-PCR for HIF-1α at outflow vein, simvastatin; format: in vivo, mice; conditions: for average reduction of HIF-1α gene expression: vs control
Experimental: as §1, §3, §4

## CCC(C)(C)C(=O)O[C@H]1C[C@@H](C)C=C2C=C[C@H](C)[C@H](CC[C@@H]3C[C@@H](O)CC(=O)O3)[C@H]21 [simvastatin]
[1]; day 14
  average lumen vessel area: 95051±21583
  Average reduction of media/adventitia area: 43%
  average increase of lumen vessel area: 150%
  average reduction of media/adventitia cell density: 37%
  average reduction of neointima area: 56%
  average reduction of neointima cell density: 65%
[1]; day 28
  average area of the neointima: 85574±1652
  average cell density of the media/adventitia: 2.85±0.10
  average cell density of the neointima: 4.2±0.2
  average lumen vessel area: 162607±34685
  average increase of lumen vessel area: 343%
  average reduction of media/adventitia cell density: 35%
  average reduction of neointima area: 45%
  average reduction of neointima cell density: 70%
[1]; day 28, not statistically significant (P=0.03)
  Average reduction of media/adventitia area: 32%
[1]; day 28 normal
  average cell density of the media/adventitia: 1.67±0.1
  average cell density of the neointima: 2.63±0.11
  average reduction of media/adventitia cell density: 71%
  average reduction of neointima cell density: 61%
[1]; day 28 normal, not statistically significant (P=0.03)
  Average reduction of media/adventitia area: 29%
Ki-67; day 14
  average reduction of Ki-67 density: 66%
Ki-67; day 28
  average reduction of Ki-67 density: 76%
Ki-67; day 28 normal
  average reduction of Ki-67 density: 77%
NIH 3T3 cells; 5 μM, 24 hours hypoxia
  average reduction of migratory capacity: 47%
NIH 3T3 cells; 5 μM, 24 hours normoxia
  average reduction of migratory capacity: 32%
NIH 3T3 cells; 10 μM, 24 hours hypoxia
  average reduction of migratory capacity: 62%
NIH 3T3 cells; 10 μM, 24 hours normoxia
  average reduction of migratory capacity: 50%
VEGF-A; day 7
  mean gene expression of VEGF-A: 0.58±0.06
VEGF-A; day 7, vs control
  Average reduction of VEGF-A gene expression: 44%
VEGF-A; day 14
  mean gene expression of VEGF-A: 0.51±0.1
VEGF-A; day 14, vs control
  Average reduction of VEGF-A gene expression: 49%
[2]; day 14
  average density of cells staining positive for TUNEL: 25.26±2.78
  average increase of TUNEL staining: 366%
[2]; day 28
  average density of cells staining positive for TUNEL: 30.17±1.8
  average increase of TUNEL staining: 561%
[2]; day 28 normal, vs control (P=0.0136)
  increase of TUNEL staining: 326%
HIF-1α; day 7
  mean gene expression of HIF-1α: 0.45±0.12
  average reduction of HIF-1α gene expression: 54%
HIF-1α; day 14
  mean gene expression of HIF-1α: 0.34±0.04
  average reduction of HIF-1α gene expression: 54%
